Data from ChEMBL document CHEMBL2157940, “Low molecular weight phosphotyrosine protein phosphatases as emerging targets for the design of novel therapeutic agents” (J Med Chem, 2012).
pIC50: −log10 of the molar value.

Key:
[1] = target: T1, Low molecular weight phosphotyrosine protein phosphatase (Homo sapiens, UniProt P24666); assay: Inhibition of human LMW-PTPase isoform 1
T1 sequence (P24666 whole entry): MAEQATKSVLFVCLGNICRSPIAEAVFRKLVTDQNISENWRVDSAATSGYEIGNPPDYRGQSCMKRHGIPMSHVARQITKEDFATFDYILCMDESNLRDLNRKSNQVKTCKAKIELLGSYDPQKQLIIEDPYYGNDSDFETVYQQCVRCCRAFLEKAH

[2] = target: T1, Low molecular weight phosphotyrosine protein phosphatase; assay: Inhibition of human LMW-PTPase isoform 2
[3] = target: T2, Tyrosine-protein phosphatase non-receptor type 1 (Homo sapiens, UniProt P18031); assay: Inhibition of human PTP1B
T2 sequence (P18031 whole entry): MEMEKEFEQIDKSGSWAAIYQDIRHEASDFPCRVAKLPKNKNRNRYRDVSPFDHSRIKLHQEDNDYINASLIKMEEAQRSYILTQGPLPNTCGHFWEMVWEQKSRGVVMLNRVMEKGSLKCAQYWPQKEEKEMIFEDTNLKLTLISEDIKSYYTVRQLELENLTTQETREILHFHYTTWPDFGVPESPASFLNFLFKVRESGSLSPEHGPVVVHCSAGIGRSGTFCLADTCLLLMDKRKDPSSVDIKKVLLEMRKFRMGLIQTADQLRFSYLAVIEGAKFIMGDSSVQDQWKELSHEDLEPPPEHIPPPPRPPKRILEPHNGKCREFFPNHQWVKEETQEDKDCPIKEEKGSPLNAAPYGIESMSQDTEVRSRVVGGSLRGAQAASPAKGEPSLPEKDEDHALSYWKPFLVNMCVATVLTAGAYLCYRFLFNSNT

[4] = target: T3, Low molecular weight phosphotyrosine protein phosphatase (Bos taurus) (UniProt P11064); assay: Inhibition of bovine kidney LMW-PTPase at 400 uM using pNPP substrate
T3 sequence (whole entry): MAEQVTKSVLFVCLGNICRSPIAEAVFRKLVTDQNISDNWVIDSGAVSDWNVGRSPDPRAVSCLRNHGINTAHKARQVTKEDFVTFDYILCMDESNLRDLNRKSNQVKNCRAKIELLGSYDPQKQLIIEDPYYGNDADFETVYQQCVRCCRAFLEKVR

[5] = target: T3, Low molecular weight phosphotyrosine protein phosphatase (Bos taurus); assay: Activation of bovine kidney LMW-PTPase at 400 uM using pNPP substrate
[6] = Inhibition of Mycobacterium tuberculosis LMW-PTP

Compound | pIC50 [1] | pIC50 [2] | inhibition [4] | other results
O=C(O)c1ccc(COc2cccc(/C=C3\S/C(=N\c4ccccc4)N(Cc4ccc(C(=O)O)cc4)C3=O)c2)cc1 | 6.30 | 6.66 | – | –
O=C(O)c1ccc(COc2ccc(/C=C3\S/C(=N\c4ccccc4)N(Cc4ccc(C(=O)O)cc4)C3=O)cc2)cc1 | 5.24 | – | – | pIC50 [3]: 6.26
Nc1ccccc1CCP(=O)(O)O | 3.60 | 2.85 | – | –
O=P(O)(O)CCc1cccc2ccccc12 | 1.85 | 2.00 | – | –
Nc1ccccc1/C=C/P(=O)(O)O | 2.28 | 1.89 | – | –
O=C(CCc1ccc(O)cc1)c1c(O)cc(O)cc1O | – | – | 14% | –
Nc1ccncc1CCP(=O)(O)O | 3.52 | 2.66 | – | –
C[C@@H]1O[C@@H](OC[C@H]2O[C@@H](Oc3c(-c4ccc(O)c(O)c4)oc4cc(O)cc(O)c4c3=O)[C@H](O)[C@@H](O)[C@@H]2O)[C@H](O)[C@H](O)[C@H]1O | – | – | 14% | –
O=c1c(O)c(-c2ccc(O)cc2O)oc2cc(O)cc(O)c12 | – | – | 35% | –
O=P(O)(O)CCc1cncc2cc[nH]c12 | 2.75 | 2.56 | – | –
O=c1c(O)c(-c2ccc(O)c(O)c2)oc2cc(O)cc(O)c12 | – | – | – | fold change (FC) [5]: 2.6
C/C(=C1\C=CC=N1)c1ccc(-c2ccc[nH]2)o1 | – | – | – | pIC50 [6]: 5.03
Oc1cc(O)c2c(c1)OC(c1ccc(O)c(O)c1)C(O)C2 (configuration not stated) | – | – | 14% | –
CCCCCCCCCCCCC[C@H]1OC(=O)[C@H](COCc2ccccc2)NC(=O)[C@H]([C@@H](C)O)NC(=O)[C@H](C(C)C)NC(=O)[C@H]1C | – | – | – | pIC50 [6]: 5.06
O=c1c(O)c(-c2cc(O)c(O)c(O)c2)oc2cc(O)cc(O)c12 | – | – | 14% | –
